US20070249607A1, “NK-1 AND SEROTONIN TRANSPORTER INHIBITORS” (Bristol-Myers Squibb Company, priority 2006, published 2007)

Tests used:
[1] = biological target: T1, neurokinin-1 (NK-1) receptor (Homo sapiens, UniProt P25103); experiment: NK-1 Binding assay ([125I] Substance P competition, U373 cell membranes); conditions: Table 1; U373 membranes, [125I] Substance P displacement; read-out: NK-1 IC50
T1 construct: a human glioblastoma-astrocytoma cell line that endogenously expresses the neurokinin-1 (NK-1) receptor; endogenous in cells; host or cells: U373 human glioblastoma-astrocytoma cells (membranes)
T1 sequence (P25103 whole entry): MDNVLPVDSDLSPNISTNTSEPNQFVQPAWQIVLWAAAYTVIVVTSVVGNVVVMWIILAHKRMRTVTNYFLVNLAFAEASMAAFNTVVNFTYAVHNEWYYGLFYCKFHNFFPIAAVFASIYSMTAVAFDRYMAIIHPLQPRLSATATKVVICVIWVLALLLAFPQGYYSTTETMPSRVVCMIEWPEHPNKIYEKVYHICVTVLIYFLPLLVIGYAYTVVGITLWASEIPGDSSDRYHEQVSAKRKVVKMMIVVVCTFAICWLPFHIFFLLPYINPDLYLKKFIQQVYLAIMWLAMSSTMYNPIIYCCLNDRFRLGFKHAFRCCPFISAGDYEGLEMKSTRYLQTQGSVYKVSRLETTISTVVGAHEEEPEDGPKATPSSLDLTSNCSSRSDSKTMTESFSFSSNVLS
Procedure: NK-1 Binding assay. U373 cells, a human glioblastoma-astrocytoma cell line that endogenously expresses the neurokinin-1 (NK-1) receptor, were grown in a monolayer culture at 37° C. in 5% CO2 and fed with Minimum Essential Medium (MEM) supplemented with 10% fetal bovine serum. Membranes were prepared as follows: Cells were washed twice with ice-cold phosphate-buffered saline (pH 7.4) and then incubated for 5-10 minutes with ice-cold 10 mM Tris buffer (pH 7.4) containing 5 mM EDTA. Cells were removed from plates, homogenized, and centrifuged at 32,000×g for 20 minutes. The resulting supernatant was discarded, and the pellet resuspended by homogenization in 50 mM Tris buffer (pH 7.4) containing 1 mM EDTA and centrifuged at 32,000×g for 20 minutes. The resulting supernatant was discarded, and the pellet resuspended by homogenization in NK-1 binding assay buffer (50 mM Tris-HCL (pH 7.4), 3 mM MnCl2, 200 μg/ml BSA, 5 μg/ml chymostatin, 40 μg/ml bacitracin and 4 μg/ml leupeptin).
On the day of an experiment the membrane preparation was thawed, homogenized and diluted with NK-1 binding assay buffer to the appropriate concentration. […] Substance P, at a concentration of […], and concentrations of drugs ranging from 10000 to 0.01 nM. Samples were incubated for 30 min at 20° C. then filtered through GF/B glass fiber filters (pretreated with 1% polyethyleneimine and 0.3% Triton X-100) using a Brandel cell harvester. The filters were then washed with 10 ml ice cold 50 mM Tris-HCL (pH 7.4) containing 3 mM MgCl2. […] The amount of radioligand bound in the presence and absence of competitor was analyzed by plotting (-)log drug concentration versus the amount of radioligand specifically bound. The midpoint of the displacement curve (IC50, nM), signifies the potency.

[2] = biological target: T2, human serotonin transporters (Homo sapiens, UniProt P31645); experiment: Serotonin transporter binding assay ([3H]-citalopram competition, HEK-hSERT cell membranes); conditions: Table 1; HEK-hSERT membranes, [3H]-citalopram displacement; read-out: SERT IC50
T2 construct: expressed in transfected cells
T2 sequence (P31645 whole entry): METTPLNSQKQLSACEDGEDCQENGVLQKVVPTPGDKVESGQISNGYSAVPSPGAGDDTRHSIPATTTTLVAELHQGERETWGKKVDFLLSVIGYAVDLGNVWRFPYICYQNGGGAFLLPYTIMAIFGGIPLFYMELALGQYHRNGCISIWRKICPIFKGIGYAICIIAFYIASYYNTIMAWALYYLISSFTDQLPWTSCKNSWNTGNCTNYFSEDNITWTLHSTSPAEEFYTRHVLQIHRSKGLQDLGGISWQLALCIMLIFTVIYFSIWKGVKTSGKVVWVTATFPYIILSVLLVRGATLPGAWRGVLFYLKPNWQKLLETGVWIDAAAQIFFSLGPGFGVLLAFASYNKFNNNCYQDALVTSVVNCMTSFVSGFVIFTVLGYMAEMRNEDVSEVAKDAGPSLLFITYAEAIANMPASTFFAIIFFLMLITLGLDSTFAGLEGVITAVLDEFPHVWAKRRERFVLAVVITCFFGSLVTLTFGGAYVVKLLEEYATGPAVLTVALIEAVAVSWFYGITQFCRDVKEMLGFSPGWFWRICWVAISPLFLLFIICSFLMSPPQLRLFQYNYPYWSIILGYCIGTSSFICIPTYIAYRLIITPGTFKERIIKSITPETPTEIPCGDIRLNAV
Procedure: Serotonin transporter binding assay. HEK-293 cells that stably express human serotonin transporters (HEK-hSERT cells) were grown at 37° C. in 5% CO2 as a monolayer in medium consisting of EMEM supplemented with 10% fetal bovine serum and G418 sulfate (500 μg/ml). To prepare membranes for radioligand binding experiments, cells were rinsed twice with phosphate-buffered saline (138 mM NaCl, 4.1 mM KCl, 5.1 mM Na2PO4, 1.5 mM KH2PO4, 11.1 mM glucose, pH 7.4). Cells were transferred from plates to polypropylene tubes (16×100 mm), centrifuged at 1,200×g for 5 min and were frozen at −80° C. until assay. Following centrifugation, pellets were resuspended by homogenization in buffer consisting of 50 mM Tris (pH 7.7 at 25° C.), 120 mM NaCl and 5 mM KCl and then centrifuged at 32,000×g for 10 min. Following centrifugation, supernatants were discarded and pellets were resuspended in buffer consisting of 50 mM Tris (pH 7.4 at 25° C.), 150 mM NaCl and 5 mM KCl. Membrane homogenates (200 μl/plate) were incubated with 1 nM [^3H]-citalopram (specific activity=85 Ci/mmol) and increasing concentrations of test compounds for 1 hr at 25° C. in a total volume of 250 μl. The assay buffer consisted of 50 mM Tris (pH 7.4 at 25° C.), 120 mM NaCl and 5 mM KCl (pH 7.4 with conc. HCl). Plates were incubated for 1 hr at 25° C., then filtered through 0.5% PEI treated Whatman GF/B filters using a Brandel cell harvester. Filters were washed three times with 3 ml of ice-cold tris wash buffer. Non-specific binding was defined with 10 μM fluoxetine. Amount of radioligand bound in the presence and absence of competitor was analyzed by plotting (-)log drug concentration versus the amount of radioligand specifically bound. The midpoint of the displacement curve (IC50, nM), signifies the potency. Ki values can be calculated using the method of Cheng and Prusoff (Cheng and Prusoff, BiochemicalPharmacology, Vol 22, pp. 3099-3108, Pergamon Press (1973)).

Question: For `COc1ncc(-c2cc(COCC3(c4ccccc4)CCNCC3)cc(C(F)(F)F)c2)cn1`, which IC50 [1] is on record?
Answer: 0.01 to 100 nM

Question: And the IC50 [2]?
Answer: 0.01 to 100 nM

Question: With `FC(F)(F)c1cc(COCC2(c3ccccc3)CCNCC2)cc(-c2ccc(N3CCOCC3)nc2)c1` as the compound, how does the IC50 [1] read?
Answer: > 300 nM

Question: What about the IC50 [2] of the same compound?
Answer: 0.01 to 100 nM

Question: How did the IC50 [1] turn out when `N#Cc1ccc(-c2cc(COCC3(c4ccccc4)CCNCC3)cc(C(F)(F)F)c2)cn1` was run?
Answer: 0.01 to 100 nM

Question: What about the IC50 [2] of the same compound?
Answer: 0.01 to 100 nM

Question: `CN1CCN(c2cc(-c3cc(COCC4(c5ccccc5)CCNCC4)cc(C(F)(F)F)c3)ccn2)CC1` was tested. Which IC50 [1] did it give?
Answer: > 300 nM

Question: And the IC50 [2]?
Answer: 100 to 300 nM

Question: What does the source list for `Fc1cc(-c2cc(COCC3(c4ccccc4)CCNCC3)cc(C(F)(F)F)c2)c(Cl)cn1`?
Answer: IC50 [1]: 0.01 to 100 nM; IC50 [2]: 0.01 to 100 nM

Question: For `COc1cc(-c2cc(COCC3(c4ccccc4)CCNCC3)cc(C(F)(F)F)c2)c(F)cn1`, which IC50 [1] is on record?
Answer: 100 to 300 nM

Question: What about the IC50 [2] of the same compound?
Answer: 0.01 to 100 nM

Question: With `COc1cc(-c2cc(COCC3(c4ccccc4)CCNCC3)cc(C(F)(F)F)c2)c(Cl)cn1` as the compound, how does the IC50 [1] read?
Answer: > 300 nM

Question: What about the IC50 [2] of the same compound?
Answer: 0.01 to 100 nM

Question: For `FC(F)(F)c1cc(COCC2(c3ccccc3)CCNCC2)cc(-c2ccccc2C(F)(F)F)c1`, which IC50 [1] is on record?
Answer: > 300 nM

Question: What about the IC50 [2] of the same compound?
Answer: 100 to 300 nM

Question: Which IC50 [1] does the source give for `COc1cc(-c2cc(COCC3(c4ccccc4)CCNCC3)cc(C(F)(F)F)c2)ccn1` here?
Answer: 0.01 to 100 nM

Question: What about the IC50 [2] of the same compound?
Answer: 0.01 to 100 nM

Question: With `FC(F)(F)c1cc(COCC2(c3ccccc3)CCNCC2)cc(-c2cnc3ccccc3c2)c1` as the compound, how does the IC50 [1] read?
Answer: 100 to 300 nM

Question: What about the IC50 [2] of the same compound?
Answer: 0.01 to 100 nM

Question: How did the IC50 [1] turn out when `COc1ncc(-c2cc(COCC3(c4ccccc4)CCNCC3)cc(C(F)(F)F)c2)c(OC)n1` was run?
Answer: 100 to 300 nM

Question: What about the IC50 [2] of the same compound?
Answer: 0.01 to 100 nM

Question: For `Nc1ccc(-c2cc(COCC3(c4ccccc4)CCNCC3)cc(C(F)(F)F)c2)cn1`, which IC50 [1] is on record?
Answer: 0.01 to 100 nM

Question: What about the IC50 [2] of the same compound?
Answer: 0.01 to 100 nM

Question: What does the source list for `FC(F)(F)c1cc(COCC2(c3ccccc3)CCNCC2)cc(-c2ccc3cnccc3c2)c1`?
Answer: IC50 [1]: 100 to 300 nM; IC50 [2]: 0.01 to 100 nM

Question: For `FC(F)(F)c1cc(COCC2(c3ccccc3)CCNCC2)cc(-c2ccc(Cl)nc2)c1`, which IC50 [1] is on record?
Answer: 0.01 to 100 nM

Question: And the IC50 [2]?
Answer: 0.01 to 100 nM

Question: `FC(F)(F)c1cc(COCC2(c3ccccc3)CCNCC2)cc(-c2cccnc2Cl)c1` was tested. Which IC50 [1] did it give?
Answer: 0.01 to 100 nM

Question: What about the IC50 [2] of the same compound?
Answer: 0.01 to 100 nM

Question: How did the IC50 [1] turn out when `Fc1ncccc1-c1cc(COCC2(c3ccccc3)CCNCC2)cc(C(F)(F)F)c1` was run?
Answer: 0.01 to 100 nM

Question: What about the IC50 [2] of the same compound?
Answer: 0.01 to 100 nM

Question: With `FC(F)(F)c1cc(COCC2(c3ccccc3)CCNCC2)cc(-c2ccc(Cl)nc2Cl)c1` as the compound, how does the IC50 [1] read?
Answer: 0.01 to 100 nM

Question: And the IC50 [2]?
Answer: 0.01 to 100 nM

Question: `Cc1ccncc1-c1cc(COCC2(c3ccccc3)CCNCC2)cc(C(F)(F)F)c1` was tested. Which IC50 [1] did it give?
Answer: > 300 nM

Question: What about the IC50 [2] of the same compound?
Answer: 0.01 to 100 nM

Question: With `O=[N+]([O-])c1cccc(-c2cc(COCC3(c4ccccc4)CCNCC3)cc(C(F)(F)F)c2)c1` as the compound, how does the IC50 [1] read?
Answer: 0.01 to 100 nM

Question: And the IC50 [2]?
Answer: 0.01 to 100 nM

Question: `Nc1cccc(-c2cc(COCC3(c4ccccc4)CCNCC3)cc(C(F)(F)F)c2)c1` was tested. Which IC50 [1] did it give?
Answer: 0.01 to 100 nM

Question: What about the IC50 [2] of the same compound?
Answer: 0.01 to 100 nM

Question: How did the IC50 [1] turn out when `FC(F)(F)c1cc(COCC2(c3ccccc3)CCNCC2)cc(-c2ccc(Cl)cc2Cl)c1` was run?
Answer: 0.01 to 100 nM

Question: What about the IC50 [2] of the same compound?
Answer: 0.01 to 100 nM

Question: `FC(F)(F)c1cc(COCC2(c3ccccc3)CCNCC2)cc(-c2cccc3ccccc23)c1` was tested. Which IC50 [1] did it give?
Answer: > 300 nM

Question: And the IC50 [2]?
Answer: 100 to 300 nM

Question: Which IC50 [1] does the source give for `Fc1ccc(-c2cc(COCC3(c4ccccc4)CCNCC3)cc(C(F)(F)F)c2)cc1` here?
Answer: 0.01 to 100 nM

Question: What about the IC50 [2] of the same compound?
Answer: 0.01 to 100 nM

Question: For `FC(F)(F)c1cc(COCC2(c3ccccc3)CCNCC2)cc(-c2ccc(Cl)cc2)c1`, which IC50 [1] is on record?
Answer: 0.01 to 100 nM

Question: What about the IC50 [2] of the same compound?
Answer: 0.01 to 100 nM

Question: For `Cc1ccc(-c2cc(COCC3(c4ccccc4)CCNCC3)cc(C(F)(F)F)c2)cc1`, which IC50 [1] is on record?
Answer: 0.01 to 100 nM

Question: And the IC50 [2]?
Answer: 0.01 to 100 nM

Question: Which IC50 [1] does the source give for `COc1ccc(-c2cc(COCC3(c4ccccc4)CCNCC3)cc(C(F)(F)F)c2)cc1` here?
Answer: 0.01 to 100 nM

Question: And the IC50 [2]?
Answer: 0.01 to 100 nM
